Data set [1] is described as follows: Analysis and comparison of properties: hygroscopicity. Particulars: solid forms prepared from crude ergothioneine. In kind it is physicochemical. The procedure: (§1) X-ray diffraction (XRD), differential scanning calorimetry (DSC), elemental analysis, particle size analysis, quantitative nuclear magnetic resonance (NMR), Raman spectroscopy, infrared spectroscopy (IR), TGA, IPC-MS, DVS and other tests were carried out on the crystal forms prepared in the Examples.
(§2) Using crude ergothioneine as raw material, three crystal forms A, B and C were prepared respectively, and their properties were compared with those of amorphous ergothioneine.

A short description of data set [2]: Analysis and comparison of properties: moisture. Format: physicochemical. Particulars: solid forms prepared from crude ergothioneine. The procedure:
as §1, §2

Where [3] appears, read: listed as amorphous ergothioneine.

Regarding `C[N+](C)(C)[C@@H](Cc1c[nH]c(=S)[nH]1)C(=O)[O-]` [Amorphous, ergothioneine], the Hygroscopicity entry in data set [1] is “Easily”; in data set [1] (setting [3]) it was “strong hygroscopicity”. Also, the “Moisture (%)” value in data set [2] and in data set [2] (setting [3]) was 1.29% in each case.
In the case of `C[N+](C)(C)[C@@H](Cc1c[nH]c(=S)[nH]1)C(=O)[O-]` [Crystal form A, ergothioneine], the Hygroscopicity result in data set [1] is on record as “Stable”. Also, in data set [2], the “Moisture (%)” value is recorded as 0.07%.
Taken in the same sequence, the figures for `C[N+](C)(C)[C@@H](Cc1c[nH]c(=S)[nH]1)C(=O)[O-]` [Crystal form C, ergothioneine] were “Stable” and 0.09%.
Taken in the same sequence, the figures for `C[N+](C)(C)[C@@H](Cc1c[nH]c(=S)[nH]1)C(=O)[O-]` [Crystal form B, ergothioneine] were “Stable” and 0.10%.

(Values after patent US20260085049A1, “CRYSTAL FORM OF ERGOTHIONEINE” (NANJING NUTRABUILDING BIO-TECH CO., LTD., priority 2023, published 2026).)
